{"source": "patent US20220175776A1", "about": "“COMBINATION OF CHIR99021 AND VALPROIC ACID FOR TREATING HEARING LOSS” (Frequency Therapeutics, Inc., priority 2019, published 2022)", "key": {"[1]": {"target": "EZH2 (Homo sapiens, UniProt O75530+Q15910)", "sequence (Q15910 whole entry)": "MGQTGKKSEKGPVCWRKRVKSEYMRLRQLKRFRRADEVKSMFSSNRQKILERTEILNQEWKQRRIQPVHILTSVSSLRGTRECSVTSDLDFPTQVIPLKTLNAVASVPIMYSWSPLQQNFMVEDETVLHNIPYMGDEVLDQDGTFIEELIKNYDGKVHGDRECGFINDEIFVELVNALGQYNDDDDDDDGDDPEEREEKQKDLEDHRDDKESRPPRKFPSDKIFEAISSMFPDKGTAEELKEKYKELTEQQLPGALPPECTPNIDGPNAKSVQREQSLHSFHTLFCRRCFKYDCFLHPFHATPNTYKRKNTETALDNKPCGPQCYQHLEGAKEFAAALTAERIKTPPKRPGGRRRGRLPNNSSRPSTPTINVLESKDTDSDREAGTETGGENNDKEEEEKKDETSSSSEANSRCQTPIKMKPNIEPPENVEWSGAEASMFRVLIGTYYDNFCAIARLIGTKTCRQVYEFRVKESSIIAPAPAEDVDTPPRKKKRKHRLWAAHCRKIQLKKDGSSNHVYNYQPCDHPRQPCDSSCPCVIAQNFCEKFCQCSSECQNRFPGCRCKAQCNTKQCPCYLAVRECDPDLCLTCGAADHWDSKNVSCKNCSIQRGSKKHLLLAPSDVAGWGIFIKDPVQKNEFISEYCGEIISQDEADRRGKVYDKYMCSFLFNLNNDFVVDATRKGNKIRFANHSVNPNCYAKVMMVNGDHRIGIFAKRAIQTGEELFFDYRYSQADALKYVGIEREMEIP", "sequence (O75530 whole entry)": "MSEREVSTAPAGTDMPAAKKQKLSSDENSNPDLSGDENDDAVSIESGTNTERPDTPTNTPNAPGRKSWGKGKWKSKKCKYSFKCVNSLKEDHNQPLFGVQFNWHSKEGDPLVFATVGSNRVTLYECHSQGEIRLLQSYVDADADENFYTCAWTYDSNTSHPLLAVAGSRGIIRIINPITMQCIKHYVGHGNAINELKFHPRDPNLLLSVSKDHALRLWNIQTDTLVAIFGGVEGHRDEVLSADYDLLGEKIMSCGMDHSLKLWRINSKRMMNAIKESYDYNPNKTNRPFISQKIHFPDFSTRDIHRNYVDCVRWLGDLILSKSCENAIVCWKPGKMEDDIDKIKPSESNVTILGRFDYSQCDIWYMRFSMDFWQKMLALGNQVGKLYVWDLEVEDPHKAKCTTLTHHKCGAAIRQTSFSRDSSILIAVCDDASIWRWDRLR", "sequence (Q15022 whole entry partner)": "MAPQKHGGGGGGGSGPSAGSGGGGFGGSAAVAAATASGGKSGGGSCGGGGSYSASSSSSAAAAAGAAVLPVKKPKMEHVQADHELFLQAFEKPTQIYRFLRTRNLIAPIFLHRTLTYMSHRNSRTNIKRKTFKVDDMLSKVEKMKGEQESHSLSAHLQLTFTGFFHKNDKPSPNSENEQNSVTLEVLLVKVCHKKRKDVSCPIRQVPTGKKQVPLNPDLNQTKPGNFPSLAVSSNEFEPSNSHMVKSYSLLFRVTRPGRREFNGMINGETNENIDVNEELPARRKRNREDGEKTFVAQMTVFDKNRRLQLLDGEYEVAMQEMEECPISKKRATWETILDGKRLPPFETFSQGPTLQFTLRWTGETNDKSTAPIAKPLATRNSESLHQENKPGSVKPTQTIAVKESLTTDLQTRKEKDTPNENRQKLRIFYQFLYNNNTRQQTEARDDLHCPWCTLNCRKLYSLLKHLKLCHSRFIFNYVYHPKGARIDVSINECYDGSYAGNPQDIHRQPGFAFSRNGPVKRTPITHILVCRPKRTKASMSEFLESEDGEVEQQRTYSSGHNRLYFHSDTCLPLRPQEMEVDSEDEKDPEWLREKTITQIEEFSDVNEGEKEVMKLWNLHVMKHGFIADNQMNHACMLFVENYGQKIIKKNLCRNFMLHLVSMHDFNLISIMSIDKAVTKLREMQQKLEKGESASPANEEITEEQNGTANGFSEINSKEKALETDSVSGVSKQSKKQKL", "sequence (Q09028 whole entry partner)": "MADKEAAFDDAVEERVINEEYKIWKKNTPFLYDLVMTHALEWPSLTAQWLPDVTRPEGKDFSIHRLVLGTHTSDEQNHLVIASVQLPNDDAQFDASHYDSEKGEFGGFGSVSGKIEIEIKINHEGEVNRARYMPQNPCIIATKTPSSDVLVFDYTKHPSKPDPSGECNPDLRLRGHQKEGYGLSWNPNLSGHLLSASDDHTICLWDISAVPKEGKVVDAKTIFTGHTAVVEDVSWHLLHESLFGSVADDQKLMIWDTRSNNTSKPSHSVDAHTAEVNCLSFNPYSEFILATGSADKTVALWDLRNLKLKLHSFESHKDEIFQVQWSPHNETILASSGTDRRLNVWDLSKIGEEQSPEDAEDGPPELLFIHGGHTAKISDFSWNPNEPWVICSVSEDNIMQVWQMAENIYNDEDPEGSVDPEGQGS", "details": "Table 7; includes EED, SAM-competitive and SAH-hydrolase inhibitors; read-out: pKi or IC50 (converted); cited from earlier work"}, "[2]": {"target": "LSD1 (Homo sapiens, UniProt O60341)", "details": "Table 6, LSD1; read-out: pKi or IC50 (converted); cited from earlier work"}, "[3]": {"system": "Lgr5+ cochlear cells", "test": "Lgr5+ Assay (in vitro Lgr5+ cell proliferation assay)", "assay_type": "cell-based"}, "[4]": {"target": "EZH2 (Homo sapiens, UniProt Q15910)", "sequence (Q15910 whole entry)": "as the sequence (Q15910 whole entry) above", "sequence (O75530 whole entry partner)": "as the sequence (O75530 whole entry) above", "sequence (Q15022 whole entry partner)": "as the sequence (Q15022 whole entry partner) above", "sequence (Q09028 whole entry partner)": "as the sequence (Q09028 whole entry partner) above", "details": "Table 7; literature, cells not named; cited from earlier work"}, "[5]": {"target": "EZH-1 (Homo sapiens, UniProt Q92800)", "sequence (Q92800 whole entry)": "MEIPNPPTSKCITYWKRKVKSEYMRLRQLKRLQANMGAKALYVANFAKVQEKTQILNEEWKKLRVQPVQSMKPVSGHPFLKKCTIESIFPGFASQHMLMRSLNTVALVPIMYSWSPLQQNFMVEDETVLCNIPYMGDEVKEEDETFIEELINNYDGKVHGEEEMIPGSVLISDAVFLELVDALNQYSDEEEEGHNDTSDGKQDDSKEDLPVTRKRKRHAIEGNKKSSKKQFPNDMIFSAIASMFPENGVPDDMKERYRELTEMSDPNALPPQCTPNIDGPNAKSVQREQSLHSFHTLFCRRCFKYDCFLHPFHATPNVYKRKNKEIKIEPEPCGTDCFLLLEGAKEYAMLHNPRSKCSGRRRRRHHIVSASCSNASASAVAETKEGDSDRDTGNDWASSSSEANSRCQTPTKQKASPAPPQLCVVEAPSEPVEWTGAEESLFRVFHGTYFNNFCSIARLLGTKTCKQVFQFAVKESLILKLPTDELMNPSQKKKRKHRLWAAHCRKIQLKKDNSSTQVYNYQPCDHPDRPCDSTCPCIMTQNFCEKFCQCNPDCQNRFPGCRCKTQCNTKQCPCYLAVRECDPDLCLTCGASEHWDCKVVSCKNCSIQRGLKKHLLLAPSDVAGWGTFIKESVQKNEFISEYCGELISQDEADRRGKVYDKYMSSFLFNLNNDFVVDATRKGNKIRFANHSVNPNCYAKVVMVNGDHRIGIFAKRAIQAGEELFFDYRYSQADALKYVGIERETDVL", "sequence (O75530 whole entry partner)": "as the sequence (O75530 whole entry) above", "sequence (Q15022 whole entry partner)": "as the sequence (Q15022 whole entry partner) above", "sequence (Q09028 whole entry partner)": "as the sequence (Q09028 whole entry partner) above", "details": "Table 7, cited from earlier work"}, "[6]": {"system": "MAOs A and B", "details": "Table 6, single value, isoform not stated; read-out: Select MAOs A and B; cited from earlier work"}, "[7]": {"details": "Table 6, human; cited from earlier work"}, "[8]": {"system": "HDAC", "details": "Table 4, HDAC class; cited from earlier work"}, "[9]": {"details": "human, in vivo", "from_the_text": "Patients underwent physical examination of weight and height, vital signs (body temperature, pulse rate, blood pressure), 12-lead electrocardiogram (ECG), drug screen, clinical laboratory testing (hematology, serum chemistry, urinalysis), urine pregnancy test, and hepatitis B and C antibody tests."}, "[10]": {"details": "Table 1, GSK3 inhibitors, concentration range"}, "[11]": {"details": "Table 7, EZH2 inhibitors, concentration range"}}, "note": "Read-outs that look alike come from different tables or passages of the source."}
{"compound": "CCc1c(N(CC)C2CCOCC2)cc2oc(C3CCN(C(C)C)CC3)cc2c1C(=O)NCc1c(C)cc(C)[nH]c1=O", "note": "[EBI-2511]", "values": [{"measurement": "IC50", "setting": "[1]", "result": 0.004, "unit": "µM"}]}
{"compound": "C#CCN(C)Cc1ccccc1", "note": "[Pargyline]", "values": [{"measurement": "IC50", "setting": "[2]", "result": 1000, "unit": "µM"}]}
{"compound": "Nc1nccc2c1ncn2[C@@H]1C=C(CO)[C@@H](O)[C@H]1O", "note": "[DZNep]", "values": [{"measurement": "Lgr5+ Assay", "setting": "[3]; Table 7, EZH2 inhibitors, result in words", "result": "Activity"}, {"measurement": "Lit Cell Poten", "setting": "[4]", "result": 1, "unit": "µM"}]}
{"compound": "CC(C)=CCC/C(C)=C/CC/C(C)=C/CC/C(C)=C/C(=O)O", "note": "[geranylgeranoic acid]", "values": [{"measurement": "IC50", "setting": "[2]", "result": 120, "unit": "µM"}]}
{"compound": "COc1cc(C)[nH]c(=O)c1CN1CCc2c(Cl)cc([C@H](OC)C3COC3)c(Cl)c2C1=O", "note": "[PF-06821497]", "values": [{"measurement": "IC50", "setting": "[1]", "result": "< 0.001", "unit": "µM"}, {"measurement": "Select vs EZH-1", "setting": "[5]; given as a concentration", "result": 70, "unit": "nM"}]}
{"compound": "O=C(O)c1ccc(CN2CCC(CN[C@@H]3C[C@H]3c3ccccc3)CC2)cc1", "note": "[GSK-2879552]", "values": [{"measurement": "IC50", "setting": "[6]", "result": 20, "unit": "µM"}]}
{"compound": "Nc1ncnc2c1ncn2[C@@H]1O[C@H](C[C@@H](N)CC[C@H](N)C(=O)O)[C@@H](O)[C@H]1O", "note": "[Sinefungin]", "values": [{"measurement": "IC50", "setting": "[1]", "result": 0.02, "unit": "µM"}]}
{"compound": "Cc1coc2c1C(=O)C(=O)c1c-2ccc2c1CC[C@H](O)[C@]2(C)O", "note": "[Tanshindiol B]", "values": [{"measurement": "IC50", "setting": "[1]", "result": 0.52, "unit": "µM"}]}
{"compound": "Cc1coc2c1C(=O)C(=O)c1c-2ccc2c1CC[C@@H](O)[C@]2(C)O", "note": "[Tanshindiol C]", "values": [{"measurement": "IC50", "setting": "[1]", "result": 0.55, "unit": "µM"}]}
{"compound": "CCCc1cc(C)[nH]c(=O)c1CNC(=O)c1cc(-c2ccnc(N3CCN(C)CC3)c2)cc2c1cnn2C(C)C", "note": "[GSK343]", "values": [{"measurement": "IC50", "setting": "[1]", "result": 0.0012, "unit": "µM"}, {"measurement": "Select vs EZH-1", "setting": "[5]; given as fold", "result": 60, "unit": "x"}]}
{"compound": "CCCc1cc(C)[nH]c(=O)c1CNC(=O)c1cc(-c2ccc(N3CCN(C(C)C)CC3)nc2)cc2c1cnn2C(C)C", "note": "[UNC1999]", "values": [{"measurement": "IC50", "setting": "[1]", "result": 0.01, "unit": "µM"}]}
{"compound": "N[C@@H]1C[C@H]1c1ccccc1", "note": "[TCP]", "values": [{"measurement": "Lgr5+ Assay", "setting": "[3]; Table 6, concentration range", "result": "0.1 to 20", "unit": "µM"}, {"measurement": "Human Plasma Conc, Cmax", "setting": "[7]", "result": "30 to 200", "unit": "ng/mL"}]}
{"compound": "Cc1cc(C)c(CN2CCc3c(Cl)cc(-c4c(C)noc4C)c(Cl)c3C2=O)c(=O)[nH]1", "note": "[PF-06726304]", "values": [{"measurement": "IC50", "setting": "[1]", "result": 0.0011, "unit": "µM"}, {"measurement": "Lit Cell Poten", "setting": "[4]", "result": "0.01 to 0.025", "unit": "µM"}]}
{"compound": "Cc1cc(C)c(CNC(=O)c2cc(-c3ccc(N4CCN(C)CC4)nc3)cc3c2cnn3C(C)C)c(=O)[nH]1", "note": "[GSK926]", "values": [{"measurement": "IC50", "setting": "[1]", "result": 0.0079, "unit": "µM"}]}
{"compound": "CCCC(CCC)C(=O)[O-].[Na+]", "note": "[Sodium Valproate]", "values": [{"measurement": "Class selectivity", "setting": "[8]", "result": "Class I"}]}
{"compound": "C#CCC(CCCCCC)C(=O)O", "note": "(centres unmarked) [2-hexyl-4-pentynoic acid]", "values": [{"measurement": "Class selectivity", "setting": "[8]", "result": "Class I"}]}
{"compound": "C=CCNc1nc(N)c(C(=O)c2ccc(Cl)s2)s1", "note": "[IBS008738]", "values": [{"measurement": "Lgr5+ Assay", "setting": "[3]; Table 10, TAZ activators, concentration range", "result": "1.1 to 30", "unit": "µM"}]}
{"compound": "CCC(CC)n1ccc2c(C(=O)NCc3c(C)cc(C)[nH]c3=O)cc(C#N)cc21", "note": "[Compound E11]", "values": [{"measurement": "Lgr5+ Assay", "setting": "[3]; Table 7, EZH2 inhibitors, concentration", "result": 5, "unit": "µM"}, {"measurement": "IC50", "setting": "[1]", "result": 0.013, "unit": "µM"}, {"measurement": "Select vs EZH-1", "setting": "[5]; given as fold", "result": 90, "unit": "x"}, {"measurement": "IC50", "setting": "[2]", "result": 0.243, "unit": "µM"}]}
{"compound": "Thiourea", "values": [{"measurement": "IC50", "setting": "[6]", "result": "> 1250", "unit": "µM"}]}
{"compound": "Cc1ccc(C(=O)Nc2c[nH]nc2C(=O)NCCCOC(C)C)cn1", "note": "[GSK XXII]", "values": [{"measurement": "Lgr5+ Assay", "setting": "[3]; [10]", "result": "0.2 to 1", "unit": "µM"}]}
{"compound": "Oc1ccc(C=Cc2cc(O)cc(O)c2)cc1", "note": "[Resveratrol]", "values": [{"measurement": "IC50", "setting": "[2]", "result": 15, "unit": "µM"}]}
{"compound": "CCCc1cc(C)[nH]c(=O)c1CNC(=O)c1cc(-c2ccc(N3CCN(C(=O)CCOCCOCCOCCOCCOCCOCCOCCOCCOCCOCCOCCOCCNC(=O)CCCC[C@@H]4SC[C@@H]5NC(=O)N[C@@H]54)CC3)nc2)cc2c1cnn2C(C)C", "note": "[UNC 2399]", "values": [{"measurement": "Lgr5+ Assay", "setting": "[3]; [11]", "result": "0.1 to 10", "unit": "µM"}]}
{"compound": "N#Cc1ccc2[nH]c(O)c(-c3ccc(CN4CCOCC4)cn3)c2c1", "note": "[AZD 1080]", "values": [{"measurement": "Lgr5+ Assay", "setting": "[3]; [10]", "result": "1 to 5", "unit": "µM"}]}
{"compound": "C/C(=N\\NC(=O)c1cccc(S(=O)(=O)N2CCOCC2)c1)c1cc(Cl)ccc1O", "note": "[SP-2509]", "values": [{"measurement": "IC50", "setting": "[6]", "result": "> 300", "unit": "µM"}]}
{"compound": "N#Cc1c2c(c3nncn3c1NCc1ccco1)CN(Cc1ccccc1)CC2", "note": "[EED162]", "values": [{"measurement": "IC50", "setting": "[1]", "result": 0.03, "unit": "µM"}]}
{"compound": "COc1cc(C)[nH]c(=O)c1CNC(=O)c1c(C)n([C@H](C)C2CCOCC2)c2ccccc12", "note": "[CPI-360]", "values": [{"measurement": "Lgr5+ Assay", "setting": "[3]; [11]", "result": "0.1 to 10", "unit": "µM"}]}
{"compound": "Cc1c[nH]c(-c2cnc(NCCNc3ccc(C#N)cn3)nc2-c2ccc(Cl)cc2Cl)n1", "note": "[CHIR99021]", "values": [{"measurement": "Lgr5+ Assay", "setting": "[3]; [10]", "result": "2 to 6", "unit": "µM"}, {"measurement": "time until cleared from the systemic circulation", "setting": "[9]", "result": "≤ 24", "unit": "h"}]}
{"compound": "CN1CCN(C(=O)[C@H](CCCN[C@@H]2C[C@H]2c2ccc(F)cc2)NC(=O)c2ccc(-n3ccnn3)cc2)CC1", "note": "[IMG-7289]", "values": [{"measurement": "Human Plasma Conc, Cmax", "setting": "[7]", "result": 63, "unit": "ng/mL"}]}
{"compound": "CC(C)=CCC/C(C)=C/CC/C(C)=C/CC/C(C)=C/CO", "note": "[Geranylgeraniol]", "values": [{"measurement": "IC50", "setting": "[2]", "result": 80, "unit": "µM"}]}
